Measurements taken from patent publication US9833497B2, “Human originated EGF domain proteins and use of the same” (CHENGDU SOURCEBIO LIMITED-LIABILITY COMPANY, priority 2013, dated 2017).

Key:
Format in all cases: cell-based
E. coli DH5α = assay: Antibacterial activity: MIC and growth curve against E. coli DH5α in 96-well plate; settings: minimal inhibitory concentration against E. coli DH5α; 96-well plate, 5×10^5 CFU/mL, 37° C., judged after 8 h
In short: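 Log-phase bacteria (OD600 ~0.5) resuspended in LB at 5×10^5 CFU/mL, exposed to recombinant protein at 50, 25, 12.5 μg/mL final in triplicate, 37 °C shaking at 175 rpm. OD600 read every 30 min; MIC is lowest concentration showing no growth.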

E. coli BL21 = assay: MIC against Gram-negative bacteria: E. coli BL21; settings: 5×10^5 CFU/mL
In short: (§1)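 Bacteria grown in LB at 37° C to McFarland 0.5, resuspended and seeded at 5×10^5 CFU/mL in 96-well plates. Purified human EGF-domain proteins two-fold serially diluted, triplicate wells; cultured at 37° C, shaking 175 rpm. MIC = lowest protein concentration with no growth.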

Pseudomonas aeruginosa = assay: MIC against Gram-negative bacteria: Pseudomonas aeruginosa; settings: 5×10^5 CFU/mL
In short: as §1

Klebsiella pneumonia = assay: MIC against Gram-negative bacteria: Klebsiella pneumonia; settings: 5×10^5 CFU/mL
In short: as §1

Enterobacter cloacae = assay: MIC against Gram-negative bacteria: Enterobacter cloacae; settings: 5×10^5 CFU/mL
In short: as §1

Aeromonas hydrophila = assay: MIC against Gram-negative bacteria: Aeromonas hydrophila; settings: 5×10^5 CFU/mL
In short: as §1

Citrobacter diversus = assay: MIC against Gram-negative bacteria: Citrobacter diversus; settings: 5×10^5 CFU/mL
In short: as §1

Moraxella catarrhalis = assay: MIC against Gram-negative bacteria: Moraxella catarrhalis; settings: 5×10^5 CFU/mL
In short: as §1

Proteus mirabilis = assay: MIC against Gram-negative bacteria: Proteus mirabilis; settings: 5×10^5 CFU/mL
In short: as §1

Proteus vulgaris = assay: MIC against Gram-negative bacteria: Proteus vulgaris; settings: 5×10^5 CFU/mL
In short: as §1

Serratia marcescens = assay: MIC against Gram-negative bacteria: Serratia marcescens; settings: 5×10^5 CFU/mL
In short: as §1

[1] = E. coli BL21, 10 h cultivation at 37° C.
[2] = P. aeruginosa, 10 h cultivation at 37° C.
[3] = K. pneumonia, 10 h cultivation at 37° C.
[4] = E. cloacae, 10 h cultivation at 37° C.
[5] = A. hydrophila, 10 h cultivation at 37° C.
[6] = C. diversus, 10 h cultivation at 37° C.
[7] = M. catarrhalis, 10 h cultivation at 37° C.
[8] = P. mirabilis, 10 h cultivation at 37° C.
[9] = P. vulgaris, 10 h cultivation at 37° C.
[10] = S. marcescens, 10 h cultivation at 37° C.
[11] = Pseudomonas aeruginosa, 10 h cultivation at 37° C.
[12] = Klebsiella pneumonia, 10 h cultivation at 37° C.
[13] = Enterobacter cloacae, 10 h cultivation at 37° C.
[14] = Aeromonas hydrophila, 10 h cultivation at 37° C.
[15] = Citrobacter diversus, 10 h cultivation at 37° C.
[16] = Moraxella catarrhalis, 10 h cultivation at 37° C.
[17] = Proteus mirabilis, 10 h cultivation at 37° C.
[18] = Proteus vulgaris, 10 h cultivation at 37° C.
[19] = Serratia marcescens, 10 h cultivation at 37° C.
[20] = E. coli BL21, 96-well plate, 37° C., 10 h
[21] = Pseudomonas aeruginosa, 96-well plate, 37° C., 10 h
[22] = Klebsiella pneumonia, 96-well plate, 37° C., 10 h
[23] = Enterobacter cloacae, 96-well plate, 37° C., 10 h
[24] = Aeromonas hydrophila, 96-well plate, 37° C., 10 h
[25] = Citrobacter diversus, 96-well plate, 37° C., 10 h
[26] = Moraxella catarrhalis, 96-well plate, 37° C., 10 h
[27] = Proteus mirabilis, 96-well plate, 37° C., 10 h
[28] = Proteus vulgaris, 96-well plate, 37° C., 10 h
[29] = Serratia marcescens, 96-well plate, 37° C., 10 h

Row | Substance | MIC (E. coli DH5α) [µg/mL] | MIC against E. coli BL21 (E. coli BL21; [1]) [µg/mL] | MIC against P. aeruginosa (Pseudomonas aeruginosa; [11]) [µg/mL] | MIC against K. pneumonia (Klebsiella pneumonia; [12]) [µg/mL] | MIC against E. cloacae (Enterobacter cloacae; [13]) [µg/mL] | MIC against A. hydrophila (Aeromonas hydrophila; [14]) [µg/mL] | MIC against C. diversus (Citrobacter diversus; [15]) [µg/mL] | MIC against M. catarrhalis (Moraxella catarrhalis; [16]) [µg/mL] | MIC against P. mirabilis (Proteus mirabilis; [17]) [µg/mL] | MIC against P. vulgaris (Proteus vulgaris; [18]) [µg/mL] | MIC against S. marcescens (Serratia marcescens; [19]) [µg/mL] | MIC (μg/mL) E. coli BL21 (E. coli BL21; [20]) [µg/mL] | MIC (μg/mL) P. aeruginosa (Pseudomonas aeruginosa; [21]) [µg/mL] | MIC (μg/mL) K. pneumonia (Klebsiella pneumonia; [22]) [µg/mL] | MIC (μg/mL) E. cloacae (Enterobacter cloacae; [23]) [µg/mL] | MIC (μg/mL) A. hydrophila (Aeromonas hydrophila; [24]) [µg/mL] | MIC (μg/mL) C. diversus (Citrobacter diversus; [25]) [µg/mL] | MIC (μg/mL) M. catarrhalis (Moraxella catarrhalis; [26]) [µg/mL] | MIC (μg/mL) P. mirabilis (Proteus mirabilis; [27]) [µg/mL] | MIC (μg/mL) P. vulgaris (Proteus vulgaris; [28]) [µg/mL] | further results
1 | PRT494 (CNCSLVGSTHHRCDVVTGHCQCKSKFGGRACDQCSLGYRDFPDCVP; listed as Homo sapiens) | 50 |  |  |  |  |  |  |  |  |  |  |  |  |  |  |  |  |  |  |  | MIC against E. coli BL21 (E. coli BL21; 96-well plate, 37° C., 10 h): 25 µg/mL; MIC against P. aeruginosa (Pseudomonas aeruginosa; 96-well plate, 37° C., 10 h): 12.5 µg/mL; MIC against K. pneumonia (Klebsiella pneumonia; 96-well plate, 37° C., 10 h): 25 µg/mL; MIC against E. cloacae (Enterobacter cloacae; 96-well plate, 37° C., 10 h): 50 µg/mL; MIC against A. hydrophila (Aeromonas hydrophila; 96-well plate, 37° C., 10 h): 25 µg/mL; MIC against C. diversus (Citrobacter diversus; 96-well plate, 37° C., 10 h): 12.5 µg/mL; MIC against M. catarrhalis (Moraxella catarrhalis; 96-well plate, 37° C., 10 h): 25 µg/mL; MIC against P. mirabilis (Proteus mirabilis; 96-well plate, 37° C., 10 h): 50 µg/mL; MIC against P. vulgaris (Proteus vulgaris; 96-well plate, 37° C., 10 h): 25 µg/mL; MIC against S. marcescens (Serratia marcescens; 96-well plate, 37° C., 10 h): 12.5 µg/mL
2 | PRT413 (DVNECITGSHSCRLGESCINTVGSFRCQRDSSCGTGYELTEDNSCK; listed as Homo sapiens) | 12.5 |  |  |  |  |  |  |  |  |  |  |  |  |  |  |  |  |  |  |  | MIC (E. coli BL21; [1]): 12.5 µg/mL; MIC (Pseudomonas aeruginosa; [2]): 12.5 µg/mL; MIC (Klebsiella pneumonia; [3]): 50 µg/mL; MIC (Enterobacter cloacae; [4]): 12.5 µg/mL; MIC (Aeromonas hydrophila; [5]): 50 µg/mL; MIC (Citrobacter diversus; [6]): 12.5 µg/mL; MIC (Moraxella catarrhalis; [7]): 50 µg/mL; MIC (Proteus mirabilis; [8]): 12.5 µg/mL; MIC (Proteus vulgaris; [9]): 12.5 µg/mL; MIC (Serratia marcescens; [10]): 12.5 µg/mL
3 | PRT154 (DVDECSLAEKTCVRKNENCYNTPGSYVCVCPDGFEETEDACV; listed as Homo sapiens) | 12.5 |  |  |  |  |  |  |  |  |  |  |  |  |  |  |  |  |  |  |  | MIC (μg/mL) E. coli BL21 (E. coli BL21; [1]): 50 µg/mL; MIC (μg/mL) P. aeruginosa (Pseudomonas aeruginosa; [2]): 12.5 µg/mL; MIC (μg/mL) K. pneumonia (Klebsiella pneumonia; [3]): 25 µg/mL; MIC (μg/mL) E. cloacae (Enterobacter cloacae; [4]): 50 µg/mL; MIC (μg/mL) A. hydrophila (Aeromonas hydrophila; [5]): 12.5 µg/mL; MIC (μg/mL) C. diversus (Citrobacter diversus; [6]): 25 µg/mL; MIC (μg/mL) M. catarrhalis (Moraxella catarrhalis; [7]): 50 µg/mL; MIC (μg/mL) P. mirabilis (Proteus mirabilis; [8]): 25 µg/mL; MIC (μg/mL) P. vulgaris (Proteus vulgaris; [9]): 12.5 µg/mL; MIC (μg/mL) S. marcescens (Serratia marcescens; [10]): 25 µg/mL
4 | PRT1373 (STRSCPGGCRGRGQCLDGRCVCEDGYSGEDC; listed as Homo sapiens) | 25 | 12.5 | 12.5 | 12.5 | 12.5 | 12.5 | 50 | 12.5 | 25 | 50 | 12.5 |  |  |  |  |  |  |  |  |  | 
5 | PRT143 (PRNPCRMSCQNHGRLNISTCHCHCPPGYTGRYCQ; listed as Homo sapiens) | 12.5 |  |  |  |  |  |  |  |  |  |  | 12.5 | 12.5 | 12.5 | 12.5 | 12.5 | 12.5 | 50 | 25 | 12.5 | MIC (μg/mL) S. marcescens (Serratia marcescens; [29]): 25 µg/mL
6 | PRT83 (DDNVCLREPCENYMKCVSVLRFDSSAPFLASASTLFRPIQPIAGLRCRCPPGFTGDFCE; listed as Homo sapiens) | 12.5 |  |  |  |  |  |  |  |  |  |  | 12.5 | 25 | 12.5 | 25 | 12.5 | 25 | 12.5 | 12.5 | 12.5 | MIC (μg/mL) S. marcescens (Serratia marcescens; [29]): 12.5 µg/mL
7 | PRT214 (DDNECGNLTQSCGENANCTNTEGSYYCMCVPGFRSSSNQDRFITNDGTVCI; listed as Homo sapiens) | 12.5 |  |  |  |  |  |  |  |  |  |  |  |  |  |  |  |  |  |  |  | MIC (μg/mL) E. coli BL21 (E. coli BL21; [1]): 25 µg/mL; MIC (μg/mL) P. aeruginosa (Pseudomonas aeruginosa; [2]): 12.5 µg/mL; MIC (μg/mL) K. pneumonia (Klebsiella pneumonia; [3]): 25 µg/mL; MIC (μg/mL) E. cloacae (Enterobacter cloacae; [4]): 12.5 µg/mL; MIC (μg/mL) A. hydrophila (Aeromonas hydrophila; [5]): 25 µg/mL; MIC (μg/mL) C. diversus (Citrobacter diversus; [6]): 12.5 µg/mL; MIC (μg/mL) M. catarrhalis (Moraxella catarrhalis; [7]): 25 µg/mL; MIC (μg/mL) P. mirabilis (Proteus mirabilis; [8]): 12.5 µg/mL; MIC (μg/mL) P. vulgaris (Proteus vulgaris; [9]): 25 µg/mL; MIC (μg/mL) S. marcescens (Serratia marcescens; [10]): 12.5 µg/mL
8 | PRT141 (DPCENNPCLHGGTCNANGTMYGCSCDQGFAGENCE; listed as Homo sapiens) | 12.5 |  |  |  |  |  |  |  |  |  |  | 25 | 12.5 | 25 | 12.5 | 25 | 50 | 12.5 | 50 | 12.5 | MIC (μg/mL) S. marcescens (Serratia marcescens; [29]): 50 µg/mL
9 | PRT1425 (DIDECENGGFCSGVCHNLPGTFECICGPDSALARHIGTDCD; listed as Homo sapiens) | 12.5 | 50 | 12.5 | 50 | 25 | 12.5 | 50 | 12.5 | 12.5 | 12.5 | 12.5 |  |  |  |  |  |  |  |  |  | 
10 | PRT1368 (EKRCPGDCSGHGFCDTGECYCEEGFTGLDCA; listed as Homo sapiens) | 12.5 | 25 | 12.5 | 25 | 12.5 | 25 | 12.5 | 12.5 | 12.5 | 12.5 | 12.5 |  |  |  |  |  |  |  |  |  | 
